{"source": "patent US20090181904A1", "about": "“METHOD FOR REGULATING NUTRIENT ABSORPTION WITH GINSENOSIDES” (priority 2005, published 2009)", "assay_type_in_all_cases": "cell-based, human", "key": {"Caco2 cells [1]": {"system": "Caco2 cells", "test": "Folate uptake assay (3H-folate uptake in Caco2 cells)", "conditions": "compound 0.1 μM", "description": "The Caco2 cells were subjected to folate uptake test in a manner similar to that described in the glucose uptake assay in Example 1 above. In the folate uptake test, the Caco2 cells were pretreated with the culture medium containing 5% FBS and purified ginsenosides at a concentration of […] for 2 days before the cells were cultured in a folate uptake buffer (Hank's balanced salt solution, supplemented with 0.14 g/L CaCl2, 0.1 g/L MgCl2, and 0.1 g/L MgSO4, pH 6.0) for 1 hour. The buffer was then aspirated, and uptake was initiated by adding 0.2 mL of fresh folate uptake buffer containing 2 μCi/mL radioactive folate (3,5,7,9-^3H-folic acid, 25 mCi/mmol, ARC) and cold, unlabeled folate giving a final folate concentration of 5 μM. Folate uptake was terminated by removing the uptake buffer at designated time intervals. The cells were then washed three times with ice-cold PBS and lysed by adding 0.2 mL of 0.2 N NaOH, followed by incubating at 65° C. for 20 min. Intracellular uptake of ^3H-folate was determined by transferring 20 μL of the cell lysate to the filter-bottomed UniFilter plates (Perkin-Elmer) and counting as described previously in Example 1. The amount of folate accumulated in the cells was calculated and normalized to protein concentration, and uptake rate was expressed as picomoles of folate per minutes per milligram of cell protein (pmol/min/mg). Protein concentration was determined by a standard Bicinchoninic acid (BCA) protein assay as described above."}, "Caco2 cells [2]": {"system": "Caco2 cells", "test": "Cell viability assay (CCK-8)", "conditions": "10 μM and 50 μM, culture medium containing 1% FBS, 5 days", "description": "In order to investigate whether the purified ginsenosides were toxic to the Caco2 cells, a cell viability assay was carried out using culture medium supplemented with 1% and 10% FBS, respectively. The cells were seeded at a concentration of 5000 cells/well in a 96-well plate. To eliminate the boundary effect of the cell growth, the cells were only seeded in 60 wells of the middle area of the plate, whereas 36 wells at the surrounding area of the plate were filled only with 100 μL of PBS. Once the cells were attached to the plate, the cells were incubated in medium containing the purified ginsenosides at various concentrations (0, 0.1, 1, 10 and 50 μM). […]\nThe cell viability was determined by a Cell Counting Kit-8 (CCK-8, Dojindo Laboratories, Kumamoto, Japan) assay that was based on redox reaction of NADH in the living cells with cell proliferation reagent WST-8. […] Therefore, a greater light absorbance detected by ELISA reader at wavelength of 450 nm indicated presence of a larger number of the living cells.\nThe CCK-8 assay was carried out by adding 10 μL of the CCK-8 reagent in each well of a 96-format plate. The plate was then covered with aluminum foil and further incubated for two hours before measuring for absorbance at wavelengths of 450 nm using an ELISA reader."}, "Caco2 cell monolayer": {"system": "Caco2 cell monolayer", "test": "Glucose absorption assay (transport across Caco2 monolayer in transwell, 14C-glucose)", "conditions": "for Transport rate (glucose): 2 days pretreatment, 25 mM glucose", "description": "For glucose absorption assay, 0.3 mL (10^5 cell/ml) of Caco2 cells were seeded into the apical chamber of each transwell and the basolateral chamber was added with 1 ml of culture medium (as indicated above). Costar transwell inserts (No. 3414, Corning Incorporated, NY, USA) separate each well in 24-well plates into an apical chamber (defined as a chamber above the insert) and a basolateral chamber (defined as a chamber below the insert). The culture medium in each transwell was changed every 2 days in both of the apical and basolateral chambers. To ensure the integrity of tight junction of Caco2 monolayer membrane formed in the transwell, a Trans-Epithelial Electrical Resistance (TEER) assay was conducted using Millicell®-ERS (Millipore EVOM-6; World Precision Instrument, Sarasota, Fla., USA) to measure the TEER between apical and basolateral chambers of the transwell. As the measured TEER reached 300 to 450 Ωcm^2 with the presence of differentiated brush border on the […] side of the cell on the 14th to 21st day of the culture, the Caco2 monolayer was ready for the glucose absorption test. The TEER values were taken before, during, and after each experiment to justify consistency of the data collected.\nGlucose absorption was initiated by replacing the culture medium in the basolateral chamber with fresh glucose absorption buffer and the culture medium in the apical chamber with 0.2 mL of the glucose absorption buffer containing 2 μCi/ml of radioactive D-[^14C]-glucose (60 Ci/mmol, American Radiolabeled Chemicals, ARC, St. Louis, Mo., USA) and unlabeled cold glucose to give glucose at a final concentration of 25 mM. A series of five 10-μL samples were taken from the basolateral chamber at every 5 or 10 minute intervals. In order to maintain the constant buffer volume, same amount of sample buffer were added back to the basolateral chamber after withdrawn of each sample. The samples were transferred to the filter-bottomed UniFilter plates (Perkin-Elmer, Wellesley, Mass., USA) and dried in a vacuum oven at 37° C. The bottom of the UniFilter plate was sealed and 25 μL of the counting solution were added into each well. Adhesive plate sealers were used in place of the lids and radioactivity of each sample was counted using the microplate liquid scintillation counter (TopCount, Packard NXT, Packard BioScience Company, Meriden, Conn., USA). The effect of test compounds on glucose absorption was expressed as the nmoles of glucose accumulated in the basolateral chamber with respect to time in minutes (nmol/min). The glucose absorption rate was obtained by calculating the slope of the straight line from the time zero to the end point of the graphic data of each figure."}}}
{"smiles": "CC(C)=CCC[C@](C)(O[C@@H]1O[C@H](CO)[C@@H](O)[C@H](O)[C@H]1O)[C@H]1CC[C@]2(C)[C@@H]1[C@H](O)C[C@@H]1[C@@]3(C)CC[C@H](O)C(C)(C)[C@@H]3[C@@H](O[C@@H]3O[C@H](CO)[C@@H](O)[C@H](O)[C@H]3O)C[C@]12C", "note": "[Rg1, ginsenoside Rg1]", "values": [{"measurement": "Percentage (folate uptake, control = 100)", "setting": "Caco2 cells [1]", "result": 62.64, "unit": "%"}, {"measurement": "folate uptake versus non-treated control (in words, FIG. 5)", "setting": "Caco2 cells [1]", "result": "decreased"}, {"measurement": "Transport rate (folate uptake)", "setting": "Caco2 cells [1]; 2 days pretreatment, 5 μM folate, pH 6.0", "result": "1.0780 ± 0.1534", "unit": "pmol/mg/min"}, {"measurement": "cytotoxicity to Caco2 cells (cell viability)", "setting": "Caco2 cells [2]", "result": "exhibited cytotoxicity"}, {"measurement": "effect on glucose absorption (in words)", "setting": "Caco2 cell monolayer", "result": "inhibitory effect"}, {"measurement": "Percentage (glucose transport, control = 100)", "setting": "Caco2 cell monolayer; compound 0.01 μM", "result": 51.88, "unit": "%"}, {"measurement": "glucose transportation (in words, FIG. 2)", "setting": "Caco2 cell monolayer; compound 0.01 μM to 1 μM", "result": "clearly inhibited"}, {"measurement": "Transport rate (glucose)", "setting": "Caco2 cell monolayer; compound 0.01 μM", "result": "1.1317 ± 0.1299", "unit": "nmol/min"}, {"measurement": "Percentage (glucose transport, control = 100)", "setting": "Caco2 cell monolayer; compound 0.1 μM", "result": 58.51, "unit": "%"}, {"measurement": "Transport rate (glucose)", "setting": "Caco2 cell monolayer; compound 0.1 μM", "result": "1.2763 ± 0.1907", "unit": "nmol/min"}, {"measurement": "Percentage (glucose transport, control = 100)", "setting": "Caco2 cell monolayer; compound 1 μM", "result": 96.68, "unit": "%"}, {"measurement": "Transport rate (glucose)", "setting": "Caco2 cell monolayer; compound 1 μM", "result": "2.1089 ± 0.2097", "unit": "nmol/min"}]}
